Laboratory results: publication PMC9571937, “Synthesis and Structure–Activity Relationship Studies of Pyrido [1,2-e]Purine-2,4(1H,3H)-Dione Derivatives Targeting Flavin-Dependent Thymidylate Synthase in Mycobacterium tuberculosis” (Molecules, 2022)

The compounds below were run against Mtb ThyX (Mycobacterium tuberculosis, UniProt P9WG57) (assay: M. tuberculosis ThyX NADPH oxidase assay). Conditions: 50 μM, screening hits (Figure 1); read-out: % inhibition (ThyX).
Format: biochemical

Chain of Mtb ThyX (P9WG57 whole entry): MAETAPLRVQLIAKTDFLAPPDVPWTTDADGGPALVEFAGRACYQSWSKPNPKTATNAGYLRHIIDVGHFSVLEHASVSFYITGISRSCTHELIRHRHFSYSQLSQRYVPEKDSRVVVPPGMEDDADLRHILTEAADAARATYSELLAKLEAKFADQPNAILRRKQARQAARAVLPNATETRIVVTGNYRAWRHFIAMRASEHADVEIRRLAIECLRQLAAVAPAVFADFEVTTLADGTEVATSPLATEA

**Q.** How did the inhibition at 50 µM turn out when `Cc1ccn2c(c1)nc1c(-c3ccc(OC(F)(F)F)cc3)nc(C(F)(F)F)nc12` [Compound 5] was run?
**A.** The inhibition at 50 µM was 13.2%.

**Q.** How did the inhibition at 50 µM turn out when `OB(O)c1ccc(Sc2nc(C(F)(F)F)nc3c2nc2ccccn23)cc1` [Compound 6] was run?
**A.** Its inhibition at 50 µM is 17.1%.

Same assay, conditions: 200 μM compound, NADPH oxidase assay, 50 µM FAD

**Q.** How did the “Inhibition % (Mtb ThyX)” value turn out when “3-(p-Fluorophenyl)-8-hex-1-ynyl-1H-purino [9,8-a]pyridine-2,4-dione [Compound 20c]” was run?
**A.** The value was 18.6%.

Same assay, conditions: 200 μM compound, NADPH oxidase assay, 50 µM FAD; read-out: Inhibition % (Mtb ThyX)

**Q.** `CCCCCCCC(=O)NCC#Cc1ccn2c(c1)nc1c(=O)n(-c3ccc(F)cc3)c(=O)[nH]c12` [Compound 20f, N-[3-[3-(p-fluorophenyl)-2,4-dioxo-1H-purino [9,8-a]pyridin-7-yl]prop-2-ynyl]octanamide] was tested. Which inhibition at 200 µM did it give?
**A.** Its inhibition at 200 µM is 18.8%.

**Q.** For `O=c1[nH]c2c(nc3ccccn32)c(=O)n1-c1cccc(F)c1` [Compound 9g, 3-(3-Fluorophenyl)pyrido [1,2-e]purine-2,4(1H,3H)-dione], which inhibition at 200 µM is on record?
**A.** Its inhibition at 200 µM is 12.8%.

**Q.** Which inhibition at 200 µM does the source give for `COc1ccc(-c2ccc3nc4c(=O)n(-c5ccc(F)cc5)c(=O)[nH]c4n3c2)cc1` [Compound 23c, 3-(p-Fluorophenyl)-8-(p-methoxyphenyl)-1H-purino [9,8-a]pyridine-2,4-dione] here?
**A.** Its inhibition at 200 µM is 35.4%.

**Q.** How did the inhibition at 200 µM turn out when `CCCCCCC#Cc1ccc2nc3c(=O)n(-c4ccc(F)cc4)c(=O)[nH]c3n2c1` [Compound 21e, 3-(p-Fluorophenyl)-8-oct-1-ynyl-1H-purino [9,8-a]pyridine-2,4-dione] was run?
**A.** The inhibition at 200 µM was 31.7%.

**Q.** With `O=c1[nH]c2c(nc3ccc(C#CCCc4ccccc4)cn32)c(=O)n1-c1ccc(F)cc1` [Compound 21a, 3-(p-Fluorophenyl)-8-(4-phenylbut-1-ynyl)-1H-purino [9,8-a]pyridine-2,4-dione] as the compound, how does the inhibition at 200 µM read?
**A.** Its inhibition at 200 µM is 69.1%.

**Q.** How did the inhibition at 200 µM turn out when `O=c1[nH]c2c(nc3ccccn32)c(=O)n1-c1ccc(C(F)(F)F)cc1` [Compound 9e, 3-(4-(Trifluoromethyl)phenyl)pyrido [1,2-e]purine-2,4(1H,3H)-dione] was run?
**A.** Its inhibition at 200 µM is 31.7%.

**Q.** `Cc1ccc2nc3c(=O)n(-c4ccc(F)cc4)c(=O)[nH]c3n2c1` [Compound 18b, 3-(p-Fluorophenyl)-8-methylpyrido [1,2-e]purine-2,4(1H,3H)-dione] was tested. Which inhibition at 200 µM did it give?
**A.** Its inhibition at 200 µM is 13.2%.

**Q.** How did the inhibition at 200 µM turn out when `O=c1[nH]c2c(nc3ccccn32)c(=O)n1Cc1ccc(C(F)(F)F)cc1` [Compound 10c, 3-(p-(Trifluoromethyl)benzyl)pyrido [1,2-e]purine-2,4(1H,3H)-dione] was run?
**A.** Its inhibition at 200 µM is 20.7%.

**Q.** Which inhibition at 200 µM does the source give for `CCCCCC#Cc1ccc2nc3c(=O)n(-c4ccc(F)cc4)c(=O)[nH]c3n2c1` [Compound 21d, 3-(p-Fluorophenyl)-8-hept-1-ynyl-1H-purino [9,8-a]pyridine-2,4-dione] here?
**A.** Its inhibition at 200 µM is 32.5%.

**Q.** Which inhibition at 200 µM does the source give for `O=c1c2nc3ccccn3c2n(Cc2ccc([N+](=O)[O-])cc2)c(=O)n1-c1ccc(F)cc1` [Compound 13d, 3-(p-Fluorophenyl)-1-[(p-nitrophenyl)methyl]purino [9,8-a]pyridine-2,4-dione] here?
**A.** Its inhibition at 200 µM is 0%.

**Q.** For `COc1ccc(-n2c(=O)[nH]c3c(nc4ccccn43)c2=O)cc1` [Compound 9f, 3-(p-Methoxyphenyl)pyrido [1,2-e]purine-2,4(1H,3H)-dione], which inhibition at 200 µM is on record?
**A.** Its inhibition at 200 µM is 8.1%.

**Q.** `CCCCCCNC(=O)NCC#Cc1ccc2nc3c(=O)n(-c4ccc(F)cc4)c(=O)[nH]c3n2c1` [Compound 21g, 1-[3-[3-(p-Fluorophenyl)-2,4-dioxo-1H-purino [9,8-a]pyridin-8-yl]prop-2-ynyl]-3-hexyl-urea] was tested. Which inhibition at 200 µM did it give?
**A.** Its inhibition at 200 µM is 28.2%.

**Q.** How did the inhibition at 200 µM turn out when `O=c1[nH]c2c(nc3ccccn32)c(=O)n1-c1ccc(Br)cc1` [Compound 9c, 3-(4-Bromophenyl)pyrido [1,2-e]purine-2,4(1H,3H)-dione] was run?
**A.** The inhibition at 200 µM was 52.2%.

**Q.** How did the inhibition at 200 µM turn out when `CCCCCCC#Cc1ccn2c(c1)nc1c(=O)n(-c3ccc(F)cc3)c(=O)[nH]c12` [Compound 20e, 3-(p-Fluorophenyl)-7-oct-1-ynyl-1H-purino [9,8-a]pyridine-2,4-dione] was run?
**A.** The inhibition at 200 µM was 45.1%.

**Q.** With `Cc1ccc(-c2ccc3nc4c(=O)n(-c5ccc(F)cc5)c(=O)[nH]c4n3c2)cc1` [Compound 23b, 3-(p-Fluorophenyl)-8-(p-tolyl)-1H-purino [9,8-a]pyridine-2,4-dione] as the compound, how does the inhibition at 200 µM read?
**A.** Its inhibition at 200 µM is 44.4%.

**Q.** With `O=c1[nH]c2c(nc3cc(-c4ccccc4)ccn32)c(=O)n1-c1ccc(F)cc1` [Compound 22a, 3-(p-Fluorophenyl)-7-phenyl-1H-purino [9,8-a]pyridine-2,4-dione] as the compound, how does the inhibition at 200 µM read?
**A.** The inhibition at 200 µM was 20.7%.

**Q.** How did the inhibition at 200 µM turn out when `CCCCC#Cc1ccc2nc3c(=O)n(-c4ccc(F)cc4)c(=O)[nH]c3n2c1` [Compound 21c, 3-(p-Fluorophenyl)-8-hex-1-ynyl-1H-purino [9,8-a]pyridine-2,4-dione] was run?
**A.** The inhibition at 200 µM was 0%.

**Q.** Which inhibition at 200 µM does the source give for `O=c1[nH]c2c(nc3ccc(-c4ccc(OC(F)(F)F)cc4)cn32)c(=O)n1-c1ccc(F)cc1` [Compound 23d, 3-(p-Fluorophenyl)-8-[p-(trifluoromethoxy)phenyl]-1H-purino [9,8-a]pyridine-2,4-dione] here?
**A.** Its inhibition at 200 µM is 29.4%.

**Q.** `O=c1c2nc3ccccn3c2n(Cc2ccccc2)c(=O)n1-c1ccc(F)cc1` [Compound 13a, 1-Benzyl-3-(4-fluorophenyl)purino [9,8-a]pyridine-2,4-dione] was tested. Which inhibition at 200 µM did it give?
**A.** The inhibition at 200 µM was 23.2%.

**Q.** For `Cc1ccc(Cn2c(=O)[nH]c3c(nc4ccccn43)c2=O)cc1` [Compound 10d, 3-(p-Methylbenzyl)pyrido [1,2-e]purine-2,4(1H,3H)-dione], which inhibition at 200 µM is on record?
**A.** The inhibition at 200 µM was 20.2%.

**Q.** With `O=c1[nH]c2c(nc3ccccn32)c(=O)n1-c1ccc(F)c(F)c1` [Compound 9h, 3-(3,4-Difluorophenyl)pyrido [1,2-e]purine-2,4(1H,3H)-dione] as the compound, how does the inhibition at 200 µM read?
**A.** Its inhibition at 200 µM is 22.7%.

**Q.** How did the inhibition at 200 µM turn out when `O=c1[nH]c2c(nc3cc(-c4ccc(OC(F)(F)F)cc4)ccn32)c(=O)n1-c1ccc(F)cc1` [Compound 22d, 3-(p-fluorophenyl)-7-[p-(trifluoromethoxy)phenyl]-1H-purino [9,8-a]pyridine-2,4-dione] was run?
**A.** The inhibition at 200 µM was no more than 28%.

**Q.** For `CCCCCCCC(=O)NCC#Cc1ccc2nc3c(=O)n(-c4ccc(F)cc4)c(=O)[nH]c3n2c1` [Compound 21f, N-[3-[3-(p-fluorophenyl)-2,4-dioxo-1H-purino [9,8-a]pyridin-8-yl]prop-2-ynyl]octanamide], which inhibition at 200 µM is on record?
**A.** The inhibition at 200 µM was 16.9%.

**Q.** Which inhibition at 200 µM does the source give for `Cc1ccc(-n2c(=O)[nH]c3c(nc4ccccn43)c2=O)cc1C` [Compound 9j, 3-(3,4-Dimethylphenyl)pyrido [1,2-e]purine-2,4(1H,3H)-dione] here?
**A.** The inhibition at 200 µM was 19.9%.

**Q.** With `CCCCCCNC(=O)NCC#Cc1ccn2c(c1)nc1c(=O)n(-c3ccc(F)cc3)c(=O)[nH]c12` [Compound 20g, 1-[3-[3-(p-Fluorophenyl)-2,4-dioxo-1H-purino [9,8-a]pyridin-7-yl]prop-2-ynyl]-3-hexyl-urea] as the compound, how does the inhibition at 200 µM read?
**A.** Its inhibition at 200 µM is 0%.

**Q.** For `O=c1c2nc3ccccn3c2[nH]c(=S)n1-c1ccc(F)cc1` [Compound 11, 3-(4-Fluorophenyl)-2-thioxo-2,3-dihydropyrido [1,2-e]purin-4(1H)-one], which inhibition at 200 µM is on record?
**A.** The inhibition at 200 µM was 19.8%.

**Q.** For `COC(=O)c1ccc(Cn2c(=O)n(-c3ccc(F)cc3)c(=O)c3nc4ccccn4c32)cc1` [Compound 13e, Methyl 4-[[3-(p-fluorophenyl)-2,4-dioxo-purino [9,8-a]pyridin-1-l]methyl]benzoate], which inhibition at 200 µM is on record?
**A.** Its inhibition at 200 µM is 44.8%.

**Q.** How did the inhibition at 200 µM turn out when `Cc1ccc(-c2ccn3c(c2)nc2c(=O)n(-c4ccc(F)cc4)c(=O)[nH]c23)cc1` [Compound 22b, 3-(p-Fluorophenyl)-7-(p-tolyl)-1H-purino [9,8-a]pyridine-2,4-dione] was run?
**A.** The inhibition at 200 µM was 45.7%.

Same assay, conditions: 200 µM, screening of in-house compound libraries; read-out: ThyX inhibitory effect

**Q.** Which inhibition at 200 µM does the source give for `Cc1ccn2c(c1)nc1c(-c3ccc(OC(F)(F)F)cc3)nc(C(F)(F)F)nc12` [Compound 5] here?
**A.** Its inhibition at 200 µM is 23.1%.

**Q.** How did the inhibition at 200 µM turn out when `OB(O)c1ccc(Sc2nc(C(F)(F)F)nc3c2nc2ccccn23)cc1` [Compound 6] was run?
**A.** Its inhibition at 200 µM is 33.2%.
